For twelve compounds, EC50 results are on record in US9499550B2 (BRISTOL-MYERS SQUIBB COMPANY, priority 2012, dated 2016).

In general, pEC50 refers to the EC50 on a negative log10 scale, so that one unit is a factor of ten.

Experiment [1] relates to HCV genotype 1b (Con1) replicon in HUH-7 cells. The experiment in a line: HCV replicon luciferase reporter assay, genotype 1b. Format: cell-based. The conditions noted are these: Hepatitis C virus, Huh-7, 72 h, HCV genotype 1b replicon luciferase assay, 3 days incubation, range class, read-out: LE_1b (EC50, range). An outline of the steps: (§1)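 Replicon inhibition for both genotypes was measured as Renilla luciferase signal (EnduRen, 7.5 μM final, 2 h) after 3-day, 37° C exposure of replicon-bearing HUH-7 cells in 4% FCS DMEM, 0.5% DMSO. The 1b construct carries S1179I; the 1a H77 construct carries P1496L and S2204I. Twenty-point, 3-fold dilutions were fitted four-parametrically for EC50, and CC50 was taken from multiplexed Cell Titer-Blue.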
Background: Replicon systems follow genome replication, usually without infectious particles.

The test system of experiment [2] is HCV genotype 1a (H77 strain) replicon in HUH-7 cells. The experiment in a line: HCV replicon luciferase reporter assay, genotype 1a. Format: cell-based. To be noted: Hepatitis C virus, Huh-7, 72 h, HCV genotype 1a replicon luciferase assay, 3 days incubation, range class, read-out: LE_1a (EC50, range). The method in brief:
as §1

pEC50: −log10 of the molar value. Bounds are passed on as bounds.

On to `COc1ccc2c(O[C@@H]3C[C@H]4C(=O)N[C@]5(C(=O)NS(=O)(=O)C6CC6)C[C@H]5/C=C\CC[C@H](C)C[C@@H](C)[C@H](NC(=O)O[C@@H]5C[C@@H]6C[C@@H]6C5)C(=O)N4C3)nccc2c1F` [Compound 3151, (1R,3r,5S)-bicyclo[3.1.0]hexan-3-yl((2R,6S,7R,9S,13aS,14aR,16aS,Z)-14a-((cyclopropylsulfonyl)carbamoyl)-2-((5-fluoro-6-methoxyisoquinolin-1-yl)oxy)-7,9-dimethyl-5,16-dioxo-1,2,3,5,6,7,8,9,10,11,13a,14,14a,15,16,16a-hexadecahydrocyclopropa[e]pyrrolo[1,2-a][1,4]diazacyclopentadecin-6-yl)carbamate], for which the pEC50 in experiment [1] is greater than 8.26; in experiment [2], 6.99 to 8.32.

Turning to `COc1ccc2c(O[C@@H]3C[C@H]4C(=O)N[C@]5(C(=O)NS(=O)(=O)C6CC6)C[C@H]5/C=C\CC[C@@H](C)C[C@@H](C)[C@H](NC(=O)O[C@@H]5C[C@@H]6C[C@@H]6C5)C(=O)N4C3)nccc2c1F` [Compound 3152, (1R,3r,5S)-bicyclo[3.1.0]hexan-3-yl((2R,6S,7R,9R,13aS,14aR,16aS,Z)-14a-((cyclopropylsulfonyl)carbamoyl)-2-((5-fluoro-6-methoxyisoquinolin-1-yl)oxy)-7,9-dimethyl-5,16-dioxo-1,2,3,5,6,7,8,9,10,11,13a,14,14a,15,16,16a-hexadecahydrocyclopropa[e]pyrrolo[1,2-a][1,4]diazacyclopentadecin-6-yl)carbamate], the pEC50 in experiment [1] and in experiment [2] was greater than 8.26 each time.

Take `COc1cc(F)cc2c(O[C@@H]3C[C@H]4C(=O)N[C@]5(C(=O)NS(=O)(=O)C6(C)CC6)C[C@H]5/C=C\CC[C@H](C)C[C@@H](C)[C@H](NC(=O)OC(C)(C)C)C(=O)N4C3)nccc12` [Compound 3153, tert-butyl ((2R,6S,7R,9S,13aS,14aR,16aS,Z)-2-((7-fluoro-5-methoxyisoquinolin-1-yl)oxy)-7,9-dimethyl-14a-(((1-methylcyclopropyl)sulfonyl)carbamoyl)-5,16-dioxo-1,2,3,5,6,7,8,9,10,11,13a,14,14a,15,16,16a-hexadecahydrocyclopropa[e]pyrrolo[1,2-a][1,4]diazacyclopentadecin-6-yl)carbamate]: the pEC50 in experiment [1] and in experiment [2] was 6.99 to 8.32 throughout.

As to `COc1cc(F)cc2c(O[C@@H]3C[C@H]4C(=O)N[C@]5(C(=O)NS(=O)(=O)C6(C)CC6)C[C@H]5/C=C\CC[C@@H](C)C[C@@H](C)[C@H](NC(=O)OC(C)(C)C)C(=O)N4C3)nccc12` [Compound 3154, tert-butyl ((2R,6S,7R,9R,13aS,14aR,16aS,Z)-2-((7-fluoro-5-methoxyisoquinolin-1-yl)oxy)-7,9-dimethyl-14a-(((1-methylcyclopropyl)sulfonyl)carbamoyl)-5,16-dioxo-1,2,3,5,6,7,8,9,10,11,13a,14,14a,15,16,16a-hexadecahydrocyclopropa[e]pyrrolo[1,2-a][1,4]diazacyclopentadecin-6-yl)carbamate], the pEC50 in experiment [1] and in experiment [2] was greater than 8.26 each time.

For `COc1cc(F)cc2c(O[C@@H]3C[C@H]4C(=O)N[C@]5(C(=O)NS(=O)(=O)C6(C)CC6)C[C@H]5/C=C\CC[C@H](C)C[C@@H](C)[C@H](NC(=O)OC(C)(C)C(F)(F)F)C(=O)N4C3)nccc12` [Compound 3155, 1,1,1-trifluoro-2-methylpropan-2-yl((2R,6S,7R,9S,13aS,14aR,16aS,Z)-2-((7-fluoro-5-methoxyisoquinolin-1-yl)oxy)-7,9-dimethyl-14a-(((1-methylcyclopropyl)sulfonyl)carbamoyl)-5,16-dioxo-1,2,3,5,6,7,8,9,10,11,13a,14,14a,15,16,16a-hexadecahydrocyclopropa[e]pyrrolo[1,2-a][1,4]diazacyclopentadecin-6-yl)carbamate], the pEC50 in experiment [1] and in experiment [2] was 6.99 to 8.32 in each case.

For the compound `COc1cc(F)cc2c(O[C@@H]3C[C@H]4C(=O)N[C@]5(C(=O)NS(=O)(=O)C6(C)CC6)C[C@H]5/C=C\CC[C@@H](C)C[C@@H](C)[C@H](NC(=O)OC(C)(C)C(F)(F)F)C(=O)N4C3)nccc12` [Compound 3156, 1,1,1-trifluoro-2-methylpropan-2-yl((2R,6S,7R,9R,13aS,14aR,16aS,Z)-2-((7-fluoro-5-methoxyisoquinolin-1-yl)oxy)-7,9-dimethyl-14a-(((1-methylcyclopropyl)sulfonyl)carbamoyl)-5,16-dioxo-1,2,3,5,6,7,8,9,10,11,13a,14,14a,15,16,16a-hexadecahydrocyclopropa[e]pyrrolo[1,2-a][1,4]diazacyclopentadecin-6-yl)carbamate], the pEC50 in experiment [1] and in experiment [2] was greater than 8.26 in each case.

For the compound `COc1cc(F)cc2c(O[C@@H]3C[C@H]4C(=O)N[C@]5(C(=O)NS(=O)(=O)C6(C)CC6)C[C@H]5/C=C\CC[C@H](C)C[C@@H](C)[C@H](NC(=O)O[C@H](C)C(F)(F)F)C(=O)N4C3)nccc12` [Compound 3157, (R)-1,1,1-trifluoropropan-2-yl ((2R,6S,7R,9S,13aS,14aR,16aS,Z)-2-((7-fluoro-5-methoxyisoquinolin-1-yl)oxy)-7,9-dimethyl-14a-(((1-methylcyclopropyl)sulfonyl)carbamoyl)-5,16-dioxo-1,2,3,5,6,7,8,9,10,11,13a,14,14a,15,16,16a-hexadecahydrocyclopropa[e]pyrrolo[1,2-a][1,4]diazacyclopentadecin-6-yl)carbamate], the pEC50 in experiment [1] is greater than 8.26; in experiment [2], 6.99 to 8.32.

`COc1cc(F)cc2c(O[C@@H]3C[C@H]4C(=O)N[C@]5(C(=O)NS(=O)(=O)C6(C)CC6)C[C@H]5/C=C\CC[C@@H](C)C[C@@H](C)[C@H](NC(=O)O[C@H](C)C(F)(F)F)C(=O)N4C3)nccc12` [Compound 3158, (R)-1,1,1-trifluoropropan-2-yl ((2R,6S,7R,9R,13aS,14aR,16aS,Z)-2-((7-fluoro-5-methoxyisoquinolin-1-yl)oxy)-7,9-dimethyl-14a-(((1-methylcyclopropyl)sulfonyl)carbamoyl)-5,16-dioxo-1,2,3,5,6,7,8,9,10,11,13a,14,14a,15,16,16a-hexadecahydrocyclopropa[e]pyrrolo[1,2-a][1,4]diazacyclopentadecin-6-yl)carbamate]: the pEC50 in experiment [1] and in experiment [2] was greater than 8.26 each time.

Take `COc1cc(F)cc2c(O[C@@H]3C[C@H]4C(=O)N[C@]5(C(=O)NS(=O)(=O)C6(C)CC6)C[C@H]5/C=C\CC[C@H](C)C[C@@H](C)[C@H](NC(=O)O[C@@H]5C[C@@H]6C[C@@H]6C5)C(=O)N4C3)nccc12` [Compound 3159, (1R,3r,5S)-bicyclo[3.1.0]hexan-3-yl((2R,6S,7R,9S,13aS,14aR,16aS,Z)-2-((7-fluoro-5-methoxyisoquinolin-1-yl)oxy)-7,9-dimethyl-14a-(((1-methylcyclopropyl)sulfonyl)carbamoyl)-5,16-dioxo-1,2,3,5,6,7,8,9,10,11,13a,14,14a,15,16,16a-hexadecahydrocyclopropa[e]pyrrolo[1,2-a][1,4]diazacyclopentadecin-6-yl)carbamate]: the negative logarithm of the EC50 (pEC50) in experiment [1] is greater than 8.26; in experiment [2], 6.99 to 8.32.

For `COc1cc(F)cc2c(O[C@@H]3C[C@H]4C(=O)N[C@]5(C(=O)NS(=O)(=O)C6(C)CC6)C[C@H]5/C=C\CC[C@@H](C)C[C@@H](C)[C@H](NC(=O)O[C@@H]5C[C@@H]6C[C@@H]6C5)C(=O)N4C3)nccc12` [Compound 3160, (1R,3r,5S)-bicyclo[3.1.0]hexan-3-yl((2R,6S,7R,9R,13aS,14aR,16aS,Z)-2-((7-fluoro-5-methoxyisoquinolin-1-yl)oxy)-7,9-dimethyl-14a-(((1-methylcyclopropyl)sulfonyl)carbamoyl)-5,16-dioxo-1,2,3,5,6,7,8,9,10,11,13a,14,14a,15,16,16a-hexadecahydrocyclopropa[e]pyrrolo[1,2-a][1,4]diazacyclopentadecin-6-yl)carbamate], the pEC50 in experiment [1] and in experiment [2] was greater than 8.26 throughout.

`COc1cc(F)cc2c(O[C@@H]3C[C@H]4C(=O)N[C@]5(C(=O)NS(=O)(=O)C6(C)CC6)C[C@H]5/C=C\CC[C@H](C)C[C@@H](C)[C@H](NC(=O)OCC5(C)CC5)C(=O)N4C3)nccc12` [Compound 3161, (1-methylcyclopropyl)methyl ((2R,6S,7R,9S,13aS,14aR,16aS,Z)-2-((7-fluoro-5-methoxyisoquinolin-1-yl)oxy)-7,9-dimethyl-14a-(((1-methylcyclopropyl)sulfonyl)carbamoyl)-5,16-dioxo-1,2,3,5,6,7,8,9,10,11,13a,14,14a,15,16,16a-hexadecahydrocyclopropa[e]pyrrolo[1,2-a][1,4]diazacyclopentadecin-6-yl)carbamate]: the pEC50 is greater than 8.26 in experiment [1] and 6.99 to 8.32 in experiment [2].

Regarding `COc1cc(F)cc2c(O[C@@H]3C[C@H]4C(=O)N[C@]5(C(=O)NS(=O)(=O)C6(C)CC6)C[C@H]5/C=C\CC[C@@H](C)C[C@@H](C)[C@H](NC(=O)OCC5(C)CC5)C(=O)N4C3)nccc12` [Compound 3162, (1-methylcyclopropyl)methyl ((2R,6S,7R,9R,13aS,14aR,16aS,Z)-2-((7-fluoro-5-methoxyisoquinolin-1-yl)oxy)-7,9-dimethyl-14a-(((1-methylcyclopropyl)sulfonyl)carbamoyl)-5,16-dioxo-1,2,3,5,6,7,8,9,10,11,13a,14,14a,15,16,16a-hexadecahydrocyclopropa[e]pyrrolo[1,2-a][1,4]diazacyclopentadecin-6-yl)carbamate], the pEC50 in experiment [1] and in experiment [2] was greater than 8.26 throughout.
